{"source": "patent US8192962B2", "about": "“Processes for detecting toxic substances” (Daikin Industries, Ltd., priority 2001, dated 2012)", "test_system": "DNA repair protein genes", "assay": "DNA chip mRNA expression in yeast, DNA repair protein genes (Table 3)", "format": "cell-based, Saccharomyces cerevisiae S288C", "details": "incubated two hours, concentrations as in the 1st table", "how_it_was_run": "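First, S288C yeast grown in YPD at 25° C. are dosed in log phase with one toxicant (growth-inhibiting, not lethal) for 2 h. Next, total RNA is extracted and poly(A) mRNA isolated and reverse-transcribed with Cy3/Cy5-dUTP. Finally, whole-genome chip fluorescence is read relative to unexposed cells.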", "data": [{"smiles": "COc1cc(CNC(=O)CCCCC=CC(C)C)ccc1O", "note": "[(12), 8-methyl-N-vanillyl-6-nonenamide]", "values": [{"measurement": "The level of expressed mRNA in the presence of chemical substance/The level of expressed mRNA in the absence of chemical substance", "setting": "yeast gene YAL015C", "value": 1.0}, {"measurement": "The level of expressed mRNA in the presence of chemical substance/The level of expressed mRNA in the absence of chemical substance", "setting": "yeast gene YAR007C", "value": 0.9}, {"measurement": "The level of expressed mRNA in the presence of chemical substance/The level of expressed mRNA in the absence of chemical substance", "setting": "yeast gene YBL019W", "value": 0.8}, {"measurement": "The level of expressed mRNA in the presence of chemical substance/The level of expressed mRNA in the absence of chemical substance", "setting": "yeast gene YBR073W", "value": 0.9}, {"measurement": "The level of expressed mRNA in the presence of chemical substance/The level of expressed mRNA in the absence of chemical substance", "setting": "yeast gene YBR272C", "value": 0.5}, {"measurement": "The level of expressed mRNA in the presence of chemical substance/The level of expressed mRNA in the absence of chemical substance", "setting": "yeast gene YCR014C", "value": 0.7}, {"measurement": "The level of expressed mRNA in the presence of chemical substance/The level of expressed mRNA in the absence of chemical substance", "setting": "yeast gene YDL017W", "value": 0.8}, {"measurement": "The level of expressed mRNA in the presence of chemical substance/The level of expressed mRNA in the absence of chemical substance", "setting": "yeast gene YDL059C", "value": 1.3}, {"measurement": "The level of expressed mRNA in the presence of chemical substance/The level of expressed mRNA in the absence of chemical substance", "setting": "yeast gene YDL200C", "value": 1.1}, {"measurement": "The level of expressed mRNA in the presence of chemical substance/The level of expressed mRNA in the absence of chemical substance", "setting": "yeast gene YDR054C", "value": 1.0}, {"measurement": "The level of expressed mRNA in the presence of chemical substance/The level of expressed mRNA in the absence of chemical substance", "setting": "yeast gene YDR369C", "value": 0.9}, {"measurement": "The level of expressed mRNA in the presence of chemical substance/The level of expressed mRNA in the absence of chemical substance", "setting": "yeast gene YEL019C", "value": 1.0}, {"measurement": "The level of expressed mRNA in the presence of chemical substance/The level of expressed mRNA in the absence of chemical substance", "setting": "yeast gene YEL037C", "value": 1.1}, {"measurement": "The level of expressed mRNA in the presence of chemical substance/The level of expressed mRNA in the absence of chemical substance", "setting": "yeast gene YER162C", "value": 0.4}, {"measurement": "The level of expressed mRNA in the presence of chemical substance/The level of expressed mRNA in the absence of chemical substance", "setting": "yeast gene YFL014W", "value": 4.3}, {"measurement": "The level of expressed mRNA in the presence of chemical substance/The level of expressed mRNA in the absence of chemical substance", "setting": "yeast gene YGL058W", "value": 1.3}, {"measurement": "The level of expressed mRNA in the presence of chemical substance/The level of expressed mRNA in the absence of chemical substance", "setting": "yeast gene YGL091C", "value": 1.2}, {"measurement": "The level of expressed mRNA in the presence of chemical substance/The level of expressed mRNA in the absence of chemical substance", "setting": "yeast gene YGL127C", "value": 1.4}, {"measurement": "The level of expressed mRNA in the presence of chemical substance/The level of expressed mRNA in the absence of chemical substance", "setting": "yeast gene YGL163C", "value": 0.9}, {"measurement": "The level of expressed mRNA in the presence of chemical substance/The level of expressed mRNA in the absence of chemical substance", "setting": "yeast gene YGL249W", "value": 0.8}, {"measurement": "The level of expressed mRNA in the presence of chemical substance/The level of expressed mRNA in the absence of chemical substance", "setting": "yeast gene YGR180C", "value": 0.9}, {"measurement": "The level of expressed mRNA in the presence of chemical substance/The level of expressed mRNA in the absence of chemical substance", "setting": "yeast gene YGR231C", "value": 1.3}, {"measurement": "The level of expressed mRNA in the presence of chemical substance/The level of expressed mRNA in the absence of chemical substance", "setting": "yeast gene YGR258C", "value": 0.9}, {"measurement": "The level of expressed mRNA in the presence of chemical substance/The level of expressed mRNA in the absence of chemical substance", "setting": "yeast gene YHR164C", "value": 1.2}, {"measurement": "The level of expressed mRNA in the presence of chemical substance/The level of expressed mRNA in the absence of chemical substance", "setting": "yeast gene YIL036W", "value": 1.2}, {"measurement": "The level of expressed mRNA in the presence of chemical substance/The level of expressed mRNA in the absence of chemical substance", "setting": "yeast gene YIL072W", "value": 1.1}, {"measurement": "The level of expressed mRNA in the presence of chemical substance/The level of expressed mRNA in the absence of chemical substance", "setting": "yeast gene YIL143C", "value": 0.9}, {"measurement": "The level of expressed mRNA in the presence of chemical substance/The level of expressed mRNA in the absence of chemical substance", "setting": "yeast gene YIL153W", "value": 1.0}, {"measurement": "The level of expressed mRNA in the presence of chemical substance/The level of expressed mRNA in the absence of chemical substance", "setting": "yeast gene YIR002C", "value": 1.3}, {"measurement": "The level of expressed mRNA in the presence of chemical substance/The level of expressed mRNA in the absence of chemical substance", "setting": "yeast gene YJL026W", "value": 1.0}, {"measurement": "The level of expressed mRNA in the presence of chemical substance/The level of expressed mRNA in the absence of chemical substance", "setting": "yeast gene YJR046W", "value": 0.9}, {"measurement": "The level of expressed mRNA in the presence of chemical substance/The level of expressed mRNA in the absence of chemical substance", "setting": "yeast gene YJR052W", "value": 1.1}, {"measurement": "The level of expressed mRNA in the presence of chemical substance/The level of expressed mRNA in the absence of chemical substance", "setting": "yeast gene YKL145W", "value": 1.3}, {"measurement": "The level of expressed mRNA in the presence of chemical substance/The level of expressed mRNA in the absence of chemical substance", "setting": "yeast gene YLR103C", "value": 1.6}, {"measurement": "The level of expressed mRNA in the presence of chemical substance/The level of expressed mRNA in the absence of chemical substance", "setting": "yeast gene YLR233C", "value": 0.9}, {"measurement": "The level of expressed mRNA in the presence of chemical substance/The level of expressed mRNA in the absence of chemical substance", "setting": "yeast gene YLR288C", "value": 0.6}, {"measurement": "The level of expressed mRNA in the presence of chemical substance/The level of expressed mRNA in the absence of chemical substance", "setting": "yeast gene YML032C", "value": 0.9}, {"measurement": "The level of expressed mRNA in the presence of chemical substance/The level of expressed mRNA in the absence of chemical substance", "setting": "yeast gene YML058W", "value": 0.9}, {"measurement": "The level of expressed mRNA in the presence of chemical substance/The level of expressed mRNA in the absence of chemical substance", "setting": "yeast gene YMR035W", "value": 0.5}, {"measurement": "The level of expressed mRNA in the presence of chemical substance/The level of expressed mRNA in the absence of chemical substance", "setting": "yeast gene YMR072W", "value": 0.8}, {"measurement": "The level of expressed mRNA in the presence of chemical substance/The level of expressed mRNA in the absence of chemical substance", "setting": "yeast gene YMR096W", "value": 1.4}, {"measurement": "The level of expressed mRNA in the presence of chemical substance/The level of expressed mRNA in the absence of chemical substance", "setting": "yeast gene YMR284W", "value": 0.6}, {"measurement": "The level of expressed mRNA in the presence of chemical substance/The level of expressed mRNA in the absence of chemical substance", "setting": "yeast gene YNL213C", "value": 0.8}, {"measurement": "The level of expressed mRNA in the presence of chemical substance/The level of expressed mRNA in the absence of chemical substance", "setting": "yeast gene YNL250W", "value": 1.4}, {"measurement": "The level of expressed mRNA in the presence of chemical substance/The level of expressed mRNA in the absence of chemical substance", "setting": "yeast gene YNL261W", "value": 0.8}, {"measurement": "The level of expressed mRNA in the presence of chemical substance/The level of expressed mRNA in the absence of chemical substance", "setting": "yeast gene YNL312W", "value": 0.9}, {"measurement": "The level of expressed mRNA in the presence of chemical substance/The level of expressed mRNA in the absence of chemical substance", "setting": "yeast gene YOL043C", "value": 0.8}, {"measurement": "The level of expressed mRNA in the presence of chemical substance/The level of expressed mRNA in the absence of chemical substance", "setting": "yeast gene YOR005C", "value": 0.9}, {"measurement": "The level of expressed mRNA in the presence of chemical substance/The level of expressed mRNA in the absence of chemical substance", "setting": "yeast gene YOR386W", "value": 1.2}, {"measurement": "The level of expressed mRNA in the presence of chemical substance/The level of expressed mRNA in the absence of chemical substance", "setting": "yeast gene YPL022W", "value": 0.7}, {"measurement": "The level of expressed mRNA in the presence of chemical substance/The level of expressed mRNA in the absence of chemical substance", "setting": "yeast gene YPL164C", "value": 0.9}, {"measurement": "The level of expressed mRNA in the presence of chemical substance/The level of expressed mRNA in the absence of chemical substance", "setting": "yeast gene YPL194W", "value": 0.9}, {"measurement": "The level of expressed mRNA in the presence of chemical substance/The level of expressed mRNA in the absence of chemical substance", "setting": "yeast gene YPR025C", "value": 0.7}]}]}
